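A five-concentration, 48-hour dose response in 96-well plates underlies each endpoint, interpolated linearly between surrounding concentrations. The concentration for full growth arrest is given as TGI.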

Among the test systems are HL-60(TB) leukemia; NCI-H226 lung; RPMI-8226 leukemia; SF-268 CNS; SK-MEL-2 melanoma; SN12C renal; SW-620 colon; UACC-62 melanoma; UO-31 renal.
Assay in all cases: inhibition of tumour cell growth, NCI panel, 48 h

Turning to `Cc1cc([N+](=O)[O-])c(S(=O)(=O)c2ccccc2)c([N+](=O)[O-])c1`, the TGI in the test on HL-60(TB) leukemia was found to be 10.7 µM; in the test with NCI-H226 lung, 41.9 µM; in the test on RPMI-8226 leukemia, 45.9 µM; in the test on SF-268 CNS, 50.4 µM; with SK-MEL-2 melanoma it was 47.6 µM; with SN12C renal, 18.3 µM. Further, the figures for the TGI in the test on SW-620 colon, in the test on UACC-62 melanoma and with UO-31 renal were 10.1 µM, greater than 44.3 µM and 31 µM, respectively.
`COC(=O)C(C(=O)C(=O)NC1Nc2ccc(C)cc2S1)c1nc2ccc(Cl)cc2[nH]c1=O` (stereo unspecified): the TGI in the test on HL-60(TB) leukemia, in the test with NCI-H226 lung, in the test on RPMI-8226 leukemia, in the test on SF-268 CNS, in the test with SK-MEL-2 melanoma and in the test with SN12C renal was greater than 100 µM throughout. Moreover, the TGI in the test with SW-620 colon, in the test with UACC-62 melanoma and in the test with UO-31 renal was greater than 100 µM each time.
For `CC(c1ccccc1)N1CC(C)(c2ccccc2)N(O)C(c2ccccc2)C1C` (stereo unspecified), the TGI in the test with HL-60(TB) leukemia amounted to 13.5 µM; in the test with RPMI-8226 leukemia it was 62.8 µM; with SF-268 CNS it was 31.3 µM; in the test with SK-MEL-2 melanoma it was 28 µM; with SW-620 colon it was 68.1 µM; with UO-31 renal it was 10.2 µM.
Regarding `Nc1c(N=Nc2ccc(-c3ccc(N=Nc4c(O)ccc5cc(S(=O)(=O)O)cc(S(=O)(=O)O)c45)cc3)cc2)c(S(=O)(=O)O)cc2cc(S(=O)(=O)O)c(N=Nc3ccccc3)c(O)c12`, the TGI in the test with HL-60(TB) leukemia was greater than 100 µM; in the test with NCI-H226 lung, greater than 95 µM; with RPMI-8226 leukemia, greater than 100 µM; in the test on SF-268 CNS, greater than 100 µM; with SK-MEL-2 melanoma it was greater than 100 µM; in the test with SN12C renal, greater than 100 µM. The TGI in the test on SW-620 colon and in the test with UACC-62 melanoma was greater than 100 µM each time.
For the compound `COc1cc2cccc(N=Cc3c(Br)ccc(OC)c3OC(C)C)c2cc1OC`, the TGI was 63.7 µM with RPMI-8226 leukemia; greater than 100 µM in the test on SF-268 CNS; greater than 100 µM in the test with SK-MEL-2 melanoma; greater than 100 µM in the test with SN12C renal; greater than 100 µM in the test on SW-620 colon; greater than 100 µM in the test on UACC-62 melanoma. In the test on UO-31 renal, this compound registered a TGI greater than 100 µM.
As to `CC(=O)NC1=C(NCC(C)C)C(=O)c2ccccc2C1=O`, the TGI was 7.32 µM in the test on HL-60(TB) leukemia; 29.5 µM in the test on NCI-H226 lung; greater than 100 µM in the test on RPMI-8226 leukemia; 46.3 µM with SF-268 CNS; 67.8 µM in the test on SK-MEL-2 melanoma; 31.2 µM in the test with SN12C renal. The TGI in the test with SW-620 colon is 33.1 µM; with UACC-62 melanoma it was 34.7 µM; in the test with UO-31 renal, 34.4 µM.
On to `CCCCCCCCCCCCCCCCOCC(Cl)COP(=O)(O)OP(=O)(O)OCC1OC(n2cnc3c(N)ncnc32)C(O)C1O` (stereo unspecified), for which the TGI in the test on HL-60(TB) leukemia, in the test with NCI-H226 lung, with RPMI-8226 leukemia, in the test on SF-268 CNS, in the test on SK-MEL-2 melanoma and with SN12C renal was greater than 100 µM throughout. Moreover, the TGI with SW-620 colon, in the test with UACC-62 melanoma and in the test on UO-31 renal was greater than 100 µM throughout.
In the case of `Cc1ccc(S(=O)(=O)N/N=C2\C3CC4CC(C3)C2C4)cc1` (stereo unspecified), the TGI with HL-60(TB) leukemia, with NCI-H226 lung, with RPMI-8226 leukemia, in the test on SK-MEL-2 melanoma, in the test with SN12C renal and in the test with SW-620 colon was greater than 100 µM in each case. Moreover, the TGI in the test on UACC-62 melanoma and with UO-31 renal was greater than 100 µM throughout.
Regarding `Cc1cc(S(=O)(=O)O)c(NC(=O)c2oc3cc(O)ccc3c(=O)c2C)cc1Cl`, the TGI in the test with NCI-H226 lung, with RPMI-8226 leukemia, in the test on SF-268 CNS, with SK-MEL-2 melanoma, in the test on SN12C renal and with SW-620 colon was greater than 100 µM in each case. The TGI with UACC-62 melanoma and in the test on UO-31 renal was greater than 100 µM in each case.
In the case of `CCOC1=C2NC(Cc3ccc(F)cc3)=NC2C(=O)c2ccccc21` (stereo unspecified), the TGI with HL-60(TB) leukemia worked out at 22.2 µM; with RPMI-8226 leukemia, 37.8 µM; in the test on SK-MEL-2 melanoma, 44.2 µM; with UACC-62 melanoma, 63.3 µM; in the test with UO-31 renal, 25.1 µM.
As for `CCOC(=O)c1nc2ccccc2nc1NCc1ccc(Cl)cc1Cl`, the TGI with NCI-H226 lung, in the test with RPMI-8226 leukemia, with SF-268 CNS, in the test on SK-MEL-2 melanoma, in the test on SW-620 colon and in the test with UACC-62 melanoma was greater than 100 µM each time. In addition, the TGI in the test with UO-31 renal was greater than 100 µM.
Consider `CCOC(=O)C1CCCCc2sc(N)c(C#N)c21` (stereo unspecified), for which the TGI with HL-60(TB) leukemia, in the test with NCI-H226 lung, with RPMI-8226 leukemia, with SK-MEL-2 melanoma, in the test on SN12C renal and with SW-620 colon was greater than 100 µM in each case. Further, the TGI in the test on UACC-62 melanoma and in the test with UO-31 renal was greater than 100 µM throughout.
As to `CC(=O)Nc1ccc(C(=O)N2N=C(C)/C(=C/c3ccc(O)cc3)C2=O)cc1`, the TGI in the test with HL-60(TB) leukemia, with NCI-H226 lung, in the test on RPMI-8226 leukemia, with SF-268 CNS, in the test with SK-MEL-2 melanoma and with SN12C renal was greater than 100 µM in each case. Besides, the TGI with SW-620 colon and in the test with UO-31 renal was greater than 100 µM each time.

The record behind these values is PubChem BioAssay (NCI).
